In ChEMBL document CHEMBL1159169, “Nuclear variations of quinuclidine substance P antagonists: 2-diphenylmethyl-1-azabicyclo[3.2.2]nonan-3-amines” (Bioorg Med Chem Lett, 1993):
pIC50: −log10 of the molar value.

What follows are compounds tested against Substance-P receptor (Homo sapiens, UniProt P25103) (assay: Compound was evaluated for the inhibition of binding of [3H]SP in human IM-9 cells).
Chain of Substance-P receptor (P25103 whole entry): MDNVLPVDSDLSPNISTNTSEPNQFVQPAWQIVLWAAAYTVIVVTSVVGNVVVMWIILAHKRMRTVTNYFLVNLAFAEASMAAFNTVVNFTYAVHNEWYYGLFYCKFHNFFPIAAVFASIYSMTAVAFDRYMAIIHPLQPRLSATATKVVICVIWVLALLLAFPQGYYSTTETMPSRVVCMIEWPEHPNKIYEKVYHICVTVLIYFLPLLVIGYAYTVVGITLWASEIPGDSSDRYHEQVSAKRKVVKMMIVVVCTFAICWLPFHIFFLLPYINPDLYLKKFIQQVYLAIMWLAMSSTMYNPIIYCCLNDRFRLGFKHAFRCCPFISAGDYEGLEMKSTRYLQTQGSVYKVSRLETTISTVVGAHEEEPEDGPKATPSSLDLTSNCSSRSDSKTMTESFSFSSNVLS
Assay type: cell-based
With `COc1ccccc1CN[C@H]1C2CCCN(CC2)[C@H]1C(c1ccccc1)c1ccccc1` (some centres undefined) the pIC50 was 7.46.
With `COc1ccccc1CN[C@H]1C2CCCN(CC2)[C@H]1C(c1ccc(F)cc1)c1ccc(F)cc1` (some centres undefined) the pIC50 was 6.51.
With `COc1ccc(CN[C@H]2C3CCCN(CC3)[C@H]2C(c2ccccc2)c2ccccc2)c(OC)c1` (some centres undefined) the pIC50 was 7.06.
Compound `Clc1ccccc1CN[C@H]1C2CCCN(CC2)[C@H]1C(c1ccccc1)c1ccccc1` (some centres undefined) has a pIC50 of 6.25.
